According to patent US20100179192A1, “USE OF NITRIC OXIDE RELEASING COMPOUNDS IN THE TREATMENT OF CHRONIC PAIN” (NICOX S.A., priority 2007, published 2010):

System: hyperalgesic responses following chronic constriction injuries of the rat sciatic nerve
Experiment: Chronic constriction injury (CCI)-induced mechanical hyperalgesia in rats (modified Randall-Selitto method)
Assay type: in vivo
Conditions: for Contra-PWT30 min (paw withdrawal threshold, contralateral unlesioned paw) / Ipsi-PWT30 min (paw withdrawal threshold, CCI-lesioned ipsilateral paw) / PWT30 min: 30 min after treatment; for Contra-PWT30 min (paw withdrawal threshold, contralateral unlesioned paw) / Ipsi-PWT30 min (paw withdrawal threshold, CCI-lesioned ipsilateral paw): cut-off 240 g; for Ipsi-PWT30 min (paw withdrawal threshold, CCI-lesioned ipsilateral paw): 7 days after sciatic nerve ligation; for PWT30 min / PWT60 min: Table II, 175 μmol/kg sc each agent, alone or in combination; for PWT60 min: 60 min after treatment
Method: The efficacy of nitrooxyderivatives of antioxidant compounds of formula (I) in the treatment of neuropathic pain was evaluated in the model of hyperalgesic responses following chronic constriction injuries of the rat sciatic nerve. The pharmacological activity of the compounds of formula (I) was compared to that of the known analgesic drugs. The parent not-derivatized antioxidant drug was used as reference. The efficacy of the equimolar combination of compounds of formula (I) and analgesic drugs selected between the group of gabapentin, tiagabine and pregabalin was also evaluated, on the same experimental model.
The method described by Bennet and Xie (1988) was generally followed. Rats were anesthetized with chloral hydrate (380 mg/kg ip, Sigma). The right common sciatic nerve was exposed at the level of the middle of the high by blunt dissection through the biceps femoris. Proximal to the sciatic's trifurcation, about 12 mm of nerve was freed of adhering tissue and four ligatures (3/0 silk suture) were tied loosely around it with about 1 mm spacings. Ligatures were tied such that the diameter of the nerve was only barely constricted. […] The incision was closed in layers. The experiments were then carried out 1 week after surgery. Mechanical hyperalgesia was determined with an analgesimeter (Ugo Basile, Italy), using the modified Randall-Selitto method. Briefly, a conical stylus with a hemispherical tip was places upon the middle of hind paw dorsum. The animal was gently restrained and calibrated pressure of gradually increasing intensity was applied until the rat withdrew the hindpaw. Threshold pressure (g) of both hindpaws was determined every 15 minutes, with two measurements before the treatments (pretest), and from 15 to 60 minutes after treatment. An arbitrary cut-off value of 240 g was adopted.

SMILES	Contra-PWT30 min (paw withdrawal threshold, contralateral unlesioned paw) (175 μmol/kg sc) [g]	sedative effect (175 μmol/kg sc, observed in CCI experiment)	Ipsi-PWT30 min (paw withdrawal threshold, CCI-lesioned ipsilateral paw) (175 μmol/kg sc) [g]	PWT30 min [g]	PWT60 min [g]
COc1cc(/C=C/C(=O)OCCCCO[N+](=O)[O-])ccc1O [Ferulic acid 4-(nitrooxy)butyl ester, Ferulic Acid 4-(nitrooxy)butyl ester]	98.5 ± 4.8	did not induce any appreciable sedative effect	76.3 ± 4.8	76.3 ± 4.8	37.5 ± 5.9
COc1cc(/C=C/C(=O)O)ccc1O [Ferulic acid]	71.4 ± 11.1		37.9 ± 15.5		
NCC1(CC(=O)O)CCCCC1 [Gabapentin]	84.3 ± 3.9		75.1 ± 9.8	75.1 ± 9.8	37.6 ± 7.0
